Assay results: patent US20220281930A1, “COMPOSITIONS AND METHODS FOR THE TREATMENT OF PATHOLOGICAL PAIN AND ITCH” (DUKE UNIVERSITY, priority 2019, published 2022)

System: KCC2 mRNA
Test: KCC2 mRNA RT-qPCR in rat primary cortical neurons
Type: cell-based
Details: primary rat cortical neurons; 0.1, 0.2, 0.5 μM KP
Method: Total RNA was isolated from cultured cell samples using Directzol RNA miniprep kit (ZymoResearch). The protocol includes DNAse digestion to exclude genomic DNA from preparations. Total RNA (1 μg) was reverse transcribed using oligo primers (dT) and SuperScriptIII first-strand synthesis kit (Invitrogen). Gene expression was assessed by quantitative real-time PCR using 2×SYBR Green Master Mix (Qiagen) and a three-step cycling protocol (anneal at 60° C./elongate at 72° C., denature at 95° C.). Specificity of primers was verified by dissociation/melting curve for the amplicons when using SYBR Green as a detector. All reactions were performed in triplicates. The amount of target messenger RNA (mRNA) in the experimental group relative to that in the control was determined from the resulting fluorescence and threshold values (Ct) using the ΔΔCt method. βIII-tubulin was used as housekeeping gene. oligodT-initiated reverse transcription of 1 μg total RNA, DNA-se treated, was subjected to RT-qPCR using primers specific for KCC2 for rat and KCC2 for human sequences, normalized for neuronal βIII-tubulin, as previously described (Yeo et al., 2009, J Neurosci 29:14652-14662). For cultured neurons, total RNA was extracted from pelleted cells, and for spinal cord tissue it was extracted from microdissected lumbar spinal cord dorsal horn.

`O=C1Cc2c([nH]c3ccc(Br)cc23)-c2ccccc2N1` [kenpaullone, 9-bromo-7,12-dihydro-indolo [3,2-d] [1]benzazepin-6(5H)-one] was tested, and the “KCC2 mRNA expression” value was “dose-dependent increase”.
